Results on three molecules are retold here after US20180009764A1, “METHOD FOR TREATING MACROPHAGE MIGRATION INHIBITORY FACTOR (MIF)-IMPLICATED DISEASES AND CONDITIONS WITH IODO PYRIMIDINE DERIVATIVES” (UNIVERSITY OF LOUISVILLE RESEARCH FOUNDATION, INC., priority 2009, published 2018).

As a reminder, the IC50 is the point on the concentration scale where inhibition reaches its midpoint. The term clearance denotes the rate of elimination divided by the concentration. A word on the half-life: it is the time needed for the level to fall by half in the phase considered. The term fraction unbound denotes the share of the substance not bound to proteins or other matrix. By efflux ratio is commonly meant the permeability from basolateral to apical divided by that in the opposite direction, in the common usage. By solubility is commonly meant the dissolved amount per volume that the medium holds.

SMILES strings stand for the structures. Converted amounts (≈) assume the structure as drawn. Some results are limits rather than exact numbers.

The test system of data set [1] is Chick Chorioallantoic Membrane (CAM). Description: Chick chorioallantoic membrane (CAM) assay, o ring. The data set is classed as in vivo. Conditions: for Blood Vessel Density: o ring. As to the method:
(§1) 8 groups with 10 embryos in each group were used in the experiment described below. Fresh fertile eggs were incubated for 3 days in a standard egg incubator at 37° C. for 3 days. On Day 3, eggs were cracked under sterile conditions and embryos were placed into 20×100 mm plastic plates and cultivated at 37° C. in an embryo incubator with a water reservoir on the bottom shelf. Air was continuously bubbled into the water reservoir using a small pump so that the humidity in the incubator is kept constant. On Day 6, a sterile silicon “o” ring was placed on each CAM and test compound dissolved in 0.5% methylcellulose was placed into each “o” ring in a sterile hood. Paclitaxel was used as a positive control. Embryos were returned to the incubator after addition of test material. Control embryos received 10 μL of vehicle alone. On Day 8, embryos were removed from the incubator and kept at room temperature while blood vessel density were determined under each “o” ring using an image capturing system at a magnification of 160×. The blood vessel density was measured using an angiogenesis scoring system in that arithmetic numbers 0 to 5 (or exponential numbers 1 to 32) are used to indicate number of blood vessels present at the treatment sites on the CAM. Number 5 represents the highest density and 0 represents no angiogenesis. The percent of inhibition at each dosing site was calculated using the score recorded for that site divided by the mean score obtained from the appropriate control samples for each individual experiment. The percent of inhibition for each dose of a given compound was calculated by pooling all results obtained for that dose from 8-10 embryos.

A short description of data set [2]: Microsomal stability in human liver microsomes. The following applies: both, human, microsomes, pH 7.4. The data set is classed as in vitro ADME. As to the method: Stability in human liver microsomes was tested over […] at 37° C. using pooled mixed gender human liver microsomes. Liver microsomes were prepared at 1.0 mg/ml of microsomal protein in a 100 mM potassium phosphate pH 7.4 buffer with 1 mM NADPH. The media was incubated at 37° C. with the compound in solution in DMSO. The concentration of the compound was followed by LC/MS-MS as a function of time. Samples were assayed at t=0, 30, 60 and 120 minutes. Testosterone was used as a positive control. The same experiment was performed with mouse liver microsomes instead of human liver microsomes.

Data set [3] addresses T1, MIF (Homo sapiens, UniProt P14174).
T1 construct: the enzymatic activity of MIF present in cell lysates; endogenous in cells
T1 sequence (P14174 2-115 limits assumed): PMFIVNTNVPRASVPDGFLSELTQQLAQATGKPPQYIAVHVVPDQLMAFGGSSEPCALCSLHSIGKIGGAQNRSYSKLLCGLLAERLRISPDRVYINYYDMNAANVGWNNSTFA
Description: MIF cell lysate enzymatic inhibition. Format: biochemical. Conditions: cell lysates. As to the method: Normal or transformed cell lysates can be used to determine the concentration inhibiting the enzymatic activity of MIF present in cell lysates. Cells are cultured in the appropriate media to the required number of cells, collected, and lysed. Compounds to be characterized are solubilized in DMSO and serial dilutions are performed in order to obtain a range of concentrations including complete and no quantifiable inhibition.

The test system of the next data set is Caco-2 monolayers. Description: Caco-2 cell permeability and transport. Format: in vitro ADME. Further details: Caco-2 Permeability Papp B-A / Caco-2 Permeability Papp A-B: unit not given here. The following applies: for Caco-2 Permeability Papp A-B: apical-to-basolateral; for Caco-2 Permeability Papp A-B / Caco-2 Permeability Papp B-A: pH 7.4, 2 hours; for Caco-2 Permeability Papp B-A: basolateral-to-apical. As to the method:
(§2) Cell permeability and transport mechanisms in Caco-2 and MDR1-MDCK monolayers experiments were performed in triplicate in the apical-to-basolateral and basolateral-to-apical direction using […]® wells containing either Caco-2 or MDR1-MDCK monolayers. A modified Hanks buffer pH 7.4 was used in both reservoir and receiver wells with the addition of 1% BSA in the receiver side. Confluent monolayers were used and their integrity was verified using reference compounds (Atenolol as a low permeability reference compound and Propanolol as a high permeability reference compound). A sample in the basolateral and apical sides was taken after 2 hours and the concentration measured by LC/MS-MS.
For orientation: Caco-2 cells form a polarised layer with tight junctions and transporters.

A short description of data set [4]: Pharmacokinetics parameters in rats. The following applies: rat, plasma. The data set is classed as in vivo. As to the method:
The pharmacokinetic parameters of several compounds were investigated in rodents. Both oral and iv administration were investigated in rats. Blood samples were collected over time; plasma was analyzed using an LC/MS-MS method. Pharmacokinetic parameters were calculated using Win-NonLin. Terminal plasma half-lives were 7.10 hr for ACT-MIF-001, 1.66 hr for ACT-MIF-002, and 1.50 hr for ACT-MIF-003. […] The volume of distribution values were 72666 mL/kg for ACT-MIF-001, 2118 mL/kg for ACT-MIF-002, and 1926 mL/kg for ACT-MIF-003.

The subject of a further data set is MDR1-MDCK monolayers. Description: MDR1-MDCK cell permeability and transport. Format: in vitro ADME. As to the method: as §2
A short description of another data set: in vitro. Format: in vitro ADME. The following applies: human, plasma, Human Plasma Protein Binding % Bound. The text has this:
Plasma protein binding was ascertained using dialysis equilibrium methods known in the art.

In the next data set the test system is Du 145. Description: Inhibition of tumor cells proliferation (CellTiter Glo). Format: cell-based. The following applies: Homo sapiens, 72 hours. As to the method: Inhibition of the proliferation of tumor cells was investigated in vitro in several tumor cell lines. Cells of the desired tumor cell line were plated at 2×10^5 cells/ml in 96 well plates. Twice the indicated concentrations of the compounds of the invention were added to cells the following day in an equal volume of media. 72 hours later, cells were lysed and subjected to ATP determination using the CellTiter Glo-Luminescent Cell Viability Assay kit (Promega, Madison, Wis.). Experiments were done in triplicate. Results for the inhibition of cells proliferation are reported as IC50 (the concentration leading to a 50% inhibition of proliferation of the cell population) and are listed in Table 6. FIGS. 3 and 4 show bar graphs comparing the IC50s of specific embodiments of compounds of the invention across multiple tumor cell lines.
Background: Cellular ATP, detected with luciferase, serves as a proxy for viable cell number.

Data set [5] concerns Chick Chorioallantoic Membrane (CAM). Description: CAM assay with matrigel plugs. Format: in vivo. As to the method: as §1
Another experiment was performed using a protocol similar to the one described above but using matrigel plugs instead of o ring to deliver the test material to the CAM. Results are summarized in Table 9 below and show a statistically significant inhibition of angiogenesis at the high concentrations of test material.

For a further data set, the system named is LOX-IMV1 tumor cell line. Description: Inhibition of cell migration (Oris Cell Migration Assay). Conditions: 72 hrs, even at low concentrations (0.03 μM), FIG. 7. The data set is classed as cell-based. As to the method:
The LOX-IMV1 tumor cell line was used to determine the inhibition of cell migration using the Oris Cell Migration Assay kit (Promega, Mich.). Briefly, adherent cells were seeded into each well of the kit according to kit instructions. Concentrations of cells in the migration zone were determined to calculate IC50 values. Prior to the migration assay, cell proliferation IC50s were determined to differentiate between inhibition of proliferation and migration. […] A slightly modified method was also used to determine the inhibition of invasion.

The nature of data set [6]: Caco-2 cell permeability and transport. The data set is classed as in vitro ADME. Further details: Caco-2 Permeability Papp B-A / Caco-2 Permeability Papp A-B: unit not given here. Conditions: human, Caco-2, pH 7.4. As to the method:
as §2

A further data set relates to p53. Description: p53 up regulation, p53 luciferase assay. The data set is classed as cell-based. Conditions: 10 μM; FIG. 5. As to the method:
The up regulation of p53 was determined using a commercially available p53 luciferase assay kit. 1×10^5 cells/ml were plated in a 24 well plate and allowed to adhere overnight. MIF antagonists were added to the cells at the indicated concentrations for 16 hours and transiently co-transfected with 0.125 μg/well of p53-responsive luciferase promoter plasmid (Promega, Madison, Wis.) together with 0.0125 μg/well Renilla pRL-null plasmid (Promega) using Lipofectamine (Invitrogen) transfection reagent. After 24 hrs, Firefly and Renilla luciferase activities were measured by the Dual Luciferase Reporter Assay System (Promega, Madison, Wis.) on a TD-20/20 luminometer (Turner Designs).

Data set [7] deals with T2, MIF (Mus musculus, UniProt P34884).
T2 construct: from tissue; host or cells: mouse liver (A7); liver, lung and brain of C57BL6 mice (A20)
Description: Oral bioavailability: ex vivo MIF enzymatic activity in liver, brain and lung after IP and PO dosing. Details: species or system C57BL6 mice. As to the method:
The compounds were administered orally (PO) and intraperitoneally (IP) to healthy animals. The inhibition of the MIF liver enzymatic activity determined ex vivo following IP and PO dosing is similar, indicating high oral bioavailability. Furthermore, brain and lung tissues were collected and processed to determine MIF enzymatic activity in these organs. […] Inhibition of MIF enzyme was determined […] following dosing of MIF-002 at 40 mg/kg once a day for three days, both IP and PO (normal C57BL6 mice, n=3). Tissues were collected at sacrifice and processed. Liver, lung, and brain tissues were collected, processed, and used for the determination of MIF enzyme activity. Values are expressed as a percentage calculated using DMSO as control (no inhibition).
Two additional compounds were tested, MIF-035 and MIF-041.

The nature of data set [8]: Solubility in varying solvents. The data set is classed as physicochemical. Conditions: 21 °C, 20-22° C.

On to `COc1ccc(-c2cc(I)ncn2)c(F)c1F` [ACT-MIF-001, 4-Iodo-6-(2,3-difluoro-4-methoxyphenyl)pyrimidine], for which the “Blood Vessel Density” value is listed as 10.5 ± 3.4 in data set [1] (0.3 nM per CAM), 4.1 ± 0.8 in data set [1] (3 nM per CAM) and 1.8 ± 0.3 in data set [1] (30 nM per CAM). In addition, the Anti-angiogenic properties entry in [1] (CAM assay, in words) is “high anti-angiogenic properties”. Besides, the “Metabolic Stability in Human Microsomes % Remaining” value in data set [2] (0 h) is on record as 100%; in data set [2] (1 h), less than 2%. Also, the IC50 on MIF [3] is 37 nM; in the data set on Du 145 it was less than 10000 nM. Further, in the data set with Caco-2 monolayers, the “Caco-2 Permeability Class” value is given as “Low”. Also, the “Caco-2 Permeability Papp A-B” value in the data set with Caco-2 monolayers is listed as less than 0.1. Further, the “Caco-2 Permeability Papp B-A” value in the data set on Caco-2 monolayers was less than 0.1. Also, in [4] (intravenous, read-out: Volume of distribution), the Vd was 72.7 L/kg. The clearance in data set [4] (iv, after i.v. administration) was 763 mL/min/kg. In addition, the half-life in data set [4] (read-out: Terminal plasma half-life (converted)) is 7.1 h. Moreover, the Brain penetration classification entry in the data set with MDR1-MDCK monolayers was “Low”. The “P-gp Substrate” value in the data set on MDR1-MDCK monolayers is listed as “No”. The Efflux entry in the data set on MDR1-MDCK monolayers (class in words) is listed as “Low”. In “in vitro”, this molecule showed an unbound share (fraction unbound) of 0.017.

`Ic1cc(-c2cccnc2)ncn1` [ACT-MIF-006, 4-Iodo-6-(pyridin-3-yl)pyrimidine]: the “Blood Vessel Counts” value in data set [5] (0.3 nM per CAM) is listed as 38.8 ± 3.5; in data set [5] (3 nM per CAM), 35.8 ± 5.4; in data set [5] (30 nM per CAM), 33.5 ± 1.7. The “Metabolic Stability in Human Microsomes % Remaining” value in data set [2] (0 h) was found to be 100%; in [2] (1 h) it was 82%. The values for the IC50 against MIF [3] and in the data set on Du 145 were 250 nM and 36700 nM, respectively. Besides, in the data set with LOX-IMV1 tumor cell line, the “Inhibition of cell migration” value is “significant inhibition of migration”. In data set [6], the efflux ratio at 2 h was 1.4. Moreover, the “Caco-2 Permeability Class” value in the data set with Caco-2 monolayers was “High”.

In the case of `NC(=O)c1cccc(-c2cc(I)ncn2)c1` [ACT-MIF-035, 4-Iodo-6-(3-aminocarbonylphenyl)pyrimidine], the p53 regulation entry with p53 is recorded as “implicated in p53 regulation”. In addition, the “Blood Vessel Counts” value amounted to 28.3 ± 1.7 in data set [5] (0.3 nM per CAM), 27.3 ± 2.4 in data set [5] (3 nM per CAM) and 26.7 ± 1.9 in data set [5] (30 nM per CAM). The “Metabolic Stability in Human Microsomes % Remaining” value in data set [2] (0 h) is on record as 100%; in data set [2] (1 h), 92%. Besides, the Oral bioavailability result at MIF [7] (judged from ex vivo MIF inhibition after IP and PO dosing) is reported as “orally bioavailable”. On MIF [7] (judged from ex vivo MIF inhibition in brain), the “Crossing of the blood brain barrier” value is on record as “crossed the blood brain barrier”. Further, the solubility is 10000 µg/mL (≈ 30.8 mM) in data set [8] (aqueous with cosolvent or surfactant or cyclodextrin, Ethanol/Tween 80); less than 6000 µg/mL in [8] (oil or lipid, Corn oil); 1400 µg/mL (≈ 4.31 mM) in [8] (organic solvent or mixture, Ethanol); 13300 µg/mL (≈ 40.9 mM) in data set [8] (organic solvent or mixture, PEG-300); 2700 µg/mL (≈ 8.3 mM) in [8] (organic solvent or mixture, Propane-diol). For the same molecule, the IC50 was found to be 185 nM against MIF [3] and 21700 nM with Du 145. In the data set with LOX-IMV1 tumor cell line, the “Inhibition of cell migration” value was “significant inhibition of migration”. Moreover, in [6], the efflux ratio at 2 h stood at 1.1. The “Caco-2 Permeability Class” value with Caco-2 monolayers was “High”. The “Caco-2 Permeability Papp A-B” value in the data set with Caco-2 monolayers is 3.1. In the data set on Caco-2 monolayers, the “Caco-2 Permeability Papp B-A” value was found to be 3.3.
